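These data come from cells grown in 96-well plates and exposed to compound for 48 hours at five concentrations. TGI denotes the concentration required for complete inhibition of growth.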
What was measured:
Test in all cases: NCI anticancer screen, dose series, 48 h
A498 renal = system: A498 renal
NCI-H522 lung = system: NCI-H522 lung
RXF 393 renal = system: RXF 393 renal
EKVX NSCLC = system: EKVX NSCLC
ACHN renal = system: ACHN renal
HL-60(TB) leukemia = system: HL-60(TB) leukemia
SW-620 colon = system: SW-620 colon
IGROV1 ovarian = system: IGROV1 ovarian
UACC-62 melanoma = system: UACC-62 melanoma
HCT-15 colon = system: HCT-15 colon
SNB-78 CNS = system: SNB-78 CNS
CCRF-CEM leukemia = system: CCRF-CEM leukemia
KM20L2 colon = system: KM20L2 colon
HOP-62 NSCLC = system: HOP-62 NSCLC
OVCAR-4 ovarian = system: OVCAR-4 ovarian
KM12 colon = system: KM12 colon
DMS 273 small cell lung = system: DMS 273 small cell lung
M19-MEL melanoma = system: M19-MEL melanoma
SN12C renal = system: SN12C renal
NCI-H460 lung = system: NCI-H460 lung
OVCAR-8 ovarian = system: OVCAR-8 ovarian
HCT-116 colon = system: HCT-116 colon
U251 CNS = system: U251 CNS
LXFL 529 NSCLC = system: LXFL 529 NSCLC
HCC-2998 colon = system: HCC-2998 colon
SF-268 CNS = system: SF-268 CNS
LOX IMVI melanoma = system: LOX IMVI melanoma
SK-MEL-5 melanoma = system: SK-MEL-5 melanoma
RPMI-8226 leukemia = system: RPMI-8226 leukemia
XF 498 CNS = system: XF 498 CNS
SNB-75 CNS = system: SNB-75 CNS
TK-10 renal = system: TK-10 renal
COLO 205 colon = system: COLO 205 colon
UO-31 renal = system: UO-31 renal
DLD-1 colon = system: DLD-1 colon
SK-MEL-2 melanoma = system: SK-MEL-2 melanoma
OVCAR-5 ovarian = system: OVCAR-5 ovarian
SK-OV-3 ovarian = system: SK-OV-3 ovarian
A549 NSCLC = system: A549 NSCLC
SR leukemia = system: SR leukemia
M14 melanoma = system: M14 melanoma
CAKI-1 renal = system: CAKI-1 renal
MOLT-4 leukemia = system: MOLT-4 leukemia
SNB-19 CNS = system: SNB-19 CNS
SF-295 CNS = system: SF-295 CNS
NCI-H23 lung = system: NCI-H23 lung
K-562 leukemia = system: K-562 leukemia
SK-MEL-28 melanoma = system: SK-MEL-28 melanoma
DMS 114 small cell lung = system: DMS 114 small cell lung
UACC-257 melanoma = system: UACC-257 melanoma
SF-539 CNS = system: SF-539 CNS
HOP-92 NSCLC = system: HOP-92 NSCLC
HT29 colon = system: HT29 colon
NCI-H226 lung = system: NCI-H226 lung
MALME-3M melanoma = system: MALME-3M melanoma
OVCAR-3 ovarian = system: OVCAR-3 ovarian

For `O=C(Nc1ccc(Cl)c(Cl)c1)C(=O)C(C(=O)c1ccccc1F)C1OC(=O)c2ccccc21` (stereo not drawn), the TGI (A498 renal) was > 100 µM, the TGI (NCI-H522 lung) was 27.3 µM and the TGI (RXF 393 renal) was 41.8 µM. The TGI (EKVX NSCLC) was 68.6 µM, the TGI (ACHN renal) was > 100 µM and the TGI (HL-60(TB) leukemia) was 41.2 µM. The TGI (SW-620 colon) was 62.3 µM, the TGI (IGROV1 ovarian) was > 100 µM and the TGI (UACC-62 melanoma) was 28.3 µM. It also gave a TGI (HCT-15 colon) of 35.5 µM, a TGI (SNB-78 CNS) of 73.1 µM and a TGI (CCRF-CEM leukemia) of 50.9 µM. The TGI (KM20L2 colon) was 55.1 µM, the TGI (HOP-62 NSCLC) was 76.2 µM and the TGI (OVCAR-4 ovarian) was > 100 µM. It also gave a TGI (KM12 colon) of 37 µM, a TGI (DMS 273 small cell lung) of 46.9 µM and a TGI (M19-MEL melanoma) of 41.7 µM. For the same compound, the TGI (SN12C renal) was 60.2 µM, the TGI (NCI-H460 lung) was 43.8 µM and the TGI (OVCAR-8 ovarian) was 28.5 µM. The TGI (HCT-116 colon) was 30.4 µM, the TGI (U251 CNS) was 28.1 µM and the TGI (LXFL 529 NSCLC) was > 100 µM. The TGI (HCC-2998 colon) was 32.7 µM, the TGI (SF-268 CNS) was 92.1 µM and the TGI (LOX IMVI melanoma) was 50.4 µM. The TGI (SK-MEL-5 melanoma) was 35.9 µM, the TGI (RPMI-8226 leukemia) was 55.9 µM and the TGI (XF 498 CNS) was 79.5 µM. The TGI (SNB-75 CNS) was 58.8 µM, the TGI (TK-10 renal) was 93.8 µM and the TGI (COLO 205 colon) was 33.1 µM. For the same compound, the TGI (UO-31 renal) was 37.2 µM, the TGI (DLD-1 colon) was > 100 µM and the TGI (SK-MEL-2 melanoma) was 38.2 µM. For the same compound, the TGI (OVCAR-5 ovarian) was > 100 µM, the TGI (SK-OV-3 ovarian) was 69.9 µM and the TGI (A549 NSCLC) was 81.4 µM. For the same compound, the TGI (SR leukemia) was > 100 µM, the TGI (M14 melanoma) was 34.3 µM and the TGI (CAKI-1 renal) was 80.2 µM. For the same compound, the TGI (MOLT-4 leukemia) was > 100 µM, the TGI (SNB-19 CNS) was 47.8 µM and the TGI (SF-295 CNS) was > 100 µM. For the same compound, the TGI (NCI-H23 lung) was 75.9 µM, the TGI (K-562 leukemia) was > 100 µM and the TGI (SK-MEL-28 melanoma) was 75.2 µM. The TGI (DMS 114 small cell lung) was 46.4 µM, the TGI (UACC-257 melanoma) was > 100 µM and the TGI (SF-539 CNS) was 28.1 µM. The TGI (HOP-92 NSCLC) was > 100 µM, the TGI (HT29 colon) was 88.8 µM and the TGI (NCI-H226 lung) was 43.7 µM.
In the case of `CO/C(=N\N=Cc1ccccc1)c1ccncc1`, the TGI (A498 renal) is reported as > 100 µM, the TGI (NCI-H522 lung) is reported as > 100 µM and the TGI (EKVX NSCLC) is reported as > 100 µM. The TGI (ACHN renal) was > 100 µM, the TGI (HL-60(TB) leukemia) was > 100 µM and the TGI (SW-620 colon) was > 100 µM. The TGI (IGROV1 ovarian) was > 100 µM, the TGI (UACC-62 melanoma) was > 100 µM and the TGI (HCT-15 colon) was > 100 µM. For the same compound, the TGI (SNB-78 CNS) was > 100 µM, the TGI (CCRF-CEM leukemia) was > 100 µM and the TGI (KM20L2 colon) was > 100 µM. For the same compound, the TGI (HOP-62 NSCLC) was > 100 µM, the TGI (OVCAR-4 ovarian) was > 100 µM and the TGI (KM12 colon) was > 100 µM. The TGI (DMS 273 small cell lung) was > 100 µM, the TGI (M19-MEL melanoma) was > 100 µM and the TGI (SN12C renal) was > 100 µM. The TGI (NCI-H460 lung) was > 100 µM, the TGI (OVCAR-8 ovarian) was > 100 µM and the TGI (HCT-116 colon) was > 100 µM. For the same compound, the TGI (U251 CNS) was > 100 µM, the TGI (LXFL 529 NSCLC) was > 100 µM and the TGI (HCC-2998 colon) was > 100 µM. The TGI (SF-268 CNS) was > 100 µM, the TGI (SK-MEL-5 melanoma) was > 100 µM and the TGI (RPMI-8226 leukemia) was > 100 µM. The TGI (XF 498 CNS) was > 100 µM, the TGI (SNB-75 CNS) was > 100 µM and the TGI (TK-10 renal) was > 100 µM. The TGI (COLO 205 colon) was > 100 µM, the TGI (UO-31 renal) was > 100 µM and the TGI (DLD-1 colon) was > 100 µM. For the same compound, the TGI (SK-MEL-2 melanoma) was > 100 µM, the TGI (OVCAR-5 ovarian) was > 100 µM and the TGI (SK-OV-3 ovarian) was > 100 µM. For the same compound, the TGI (A549 NSCLC) was > 100 µM, the TGI (SR leukemia) was > 100 µM and the TGI (M14 melanoma) was > 100 µM. The TGI (CAKI-1 renal) was > 100 µM, the TGI (MOLT-4 leukemia) was > 100 µM and the TGI (MALME-3M melanoma) was > 100 µM. The TGI (SNB-19 CNS) was > 100 µM, the TGI (SF-295 CNS) was > 100 µM and the TGI (NCI-H23 lung) was > 100 µM. The TGI (K-562 leukemia) was > 100 µM, the TGI (SK-MEL-28 melanoma) was > 100 µM and the TGI (DMS 114 small cell lung) was > 100 µM. For the same compound, the TGI (UACC-257 melanoma) was > 100 µM, the TGI (SF-539 CNS) was > 100 µM and the TGI (HOP-92 NSCLC) was > 100 µM. For the same compound, the TGI (HT29 colon) was > 100 µM, the TGI (NCI-H226 lung) was 97.1 µM and the TGI (OVCAR-3 ovarian) was > 100 µM.
